Measured values published in patent US20020137929A1, “1 - (3-heterocyclylphenyl) isothiourea, -isourea, -guanidine and -amidine herbicidal agents” (Intellectual Property Department, BASF Aktiengesellschaft, priority 1998, published 2002).

Experiments:
[1] = test system: TRZAWR (Wheat, Winter, cv Riband); assay: Preemergence herbicidal evaluation; format: in vivo, Triticum aestivum; details: rated 4-5 weeks after treatment
Procedure, shortened: (§1)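 Preemergence soil application of compound, sprayed in aqueous acetone at rates equivalent to about 0.0156 to 0.500 kg per hectare onto freshly sown cups. Plant response was judged by eye on a 0-9 scale four to five weeks later.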

[2] = test system: GLXMAW (Soybean, Williams); assay: Preemergence herbicidal evaluation; format: in vivo, Glycine max, (L.) Merr. cv Williams; details: rated 4-5 weeks after treatment
Procedure, shortened: as §1

CYPIR (Rice Flatsedge) = assay: Postemergence weed control under flooded paddy conditions; format: in vivo, Cyperus iria; details: postemergence weeds, 3-4 weeks after treatment
Procedure, shortened: (§2)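 With weeds 3 to 5 cm tall and rice at the 1.5 to 2.5 leaf stage, containers were flooded and water held 1.5 to 3 cm above soil. Compounds in 50/50 v/v aqueous/acetone went into the flood water at about 0.0313 to 0.500 kg/ha a.i. Effects were visually rated 0–9 against controls after three to four weeks in the greenhouse.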

[3] = test system: CHEAL (Lambsquarters, Common); assay: Postemergence herbicidal evaluation; format: in vivo, Chenopodium album; details: postemergence
Procedure, shortened: (§3)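 Herbicidal effect was judged by eye on a 0–9 scale covering stand, vigor, deformity, size and chlorosis, compared with controls, four to five weeks after seedlings about two weeks old were sprayed (40 psi, ~0.0156–0.500 kg/ha).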

ECHCG (Barnyardgrass) [4] = assay: Preemergence herbicidal evaluation; format: in vivo, Echinochloa crus-galli; details: rated 4-5 weeks after treatment
Procedure, shortened: as §1

ORYSAT (Rice, Tebonnet) = assay: Postemergence herbicidal evaluation; format: in vivo, Oryza sativa, (L.) Tebonnet; details: postemergence
Procedure, shortened: as §3

SETVI (Foxtail, Green) = assay: Postemergence herbicidal evaluation; format: in vivo, Setaria viridis; details: postemergence
Procedure, shortened: as §3

ABUTH (Velvetleaf) [5] = assay: Preemergence herbicidal evaluation; format: in vivo, Abutilon theophrasti; details: rated 4-5 weeks after treatment
Procedure, shortened: as §1

ABUTH (Velvetleaf) [6] = assay: Postemergence herbicidal evaluation; format: in vivo, Abutilon theophrasti; details: postemergence
Procedure, shortened: as §3

[7] = test system: CHEAL (Lambsquarters, Common); assay: Preemergence herbicidal evaluation; format: in vivo, Chenopodium album; details: rated 4-5 weeks after treatment
Procedure, shortened: as §1

CASOB (Sicklepod) = assay: Preemergence herbicidal evaluation; format: in vivo, Cassia obtusifolia; details: rated 4-5 weeks after treatment
Procedure, shortened: as §1

ZEAMX (Corn, Field) [8] = assay: Preemergence herbicidal evaluation; format: in vivo, Zea mays; details: rated 4-5 weeks after treatment
Procedure, shortened: as §1

CYPSE (Flatsedge) = assay: Postemergence weed control under flooded paddy conditions; format: in vivo, Cyperus serotinus; details: postemergence weeds, 3-4 weeks after treatment
Procedure, shortened: as §2

ECHCG (Barnyardgrass) [9] = assay: Postemergence herbicidal evaluation; format: in vivo, Echinochloa crus-galli; details: postemergence
Procedure, shortened: as §3

ZEAMX (Corn, Field) [10] = assay: Postemergence herbicidal evaluation; format: in vivo, Zea mays; details: postemergence
Procedure, shortened: as §3

SMILES: O=C1CSC(=Nc2cc(N3C(=O)C4=C(CCCC4)C3=O)c(F)cc2Cl)N1c1ccccc1 [Compound 3, N-{4-chloro-2-fluoro-5-[(4-oxo-3-phenyl-2-thiazolidinylidene)amino]phenyl}-1-cyclohexene-1,2-dicarboximide]
- TRZAWR preemergence herbicidal rating ([1]; rate 0.0313 kg/ha): 0.0
- TRZAWR preemergence herbicidal rating ([1]; rate 0.0625 kg/ha): 0.0
- TRZAWR preemergence herbicidal rating ([1]; rate 0.1250 kg/ha): 0.0
- TRZAWR preemergence herbicidal rating ([1]; rate 0.2500 kg/ha): 2.0
- TRZAWR preemergence herbicidal rating ([1]; rate 0.5000 kg/ha): 2.0
- GLXMAW preemergence herbicidal rating ([2]; rate 0.0313 kg/ha): 0.0
- GLXMAW preemergence herbicidal rating ([2]; rate 0.0625 kg/ha): 0.0
- GLXMAW preemergence herbicidal rating ([2]; rate 0.1250 kg/ha): 0.0
- GLXMAW preemergence herbicidal rating ([2]; rate 0.2500 kg/ha): 0.0
- GLXMAW preemergence herbicidal rating ([2]; rate 0.5000 kg/ha): 2.0
- Herbicidal rating CYPIR (CYPIR (Rice Flatsedge); rate 0.0625 kg/ha): 0.0
- Herbicidal rating CYPIR (CYPIR (Rice Flatsedge); rate 0.1250 kg/ha): 0.0
- Herbicidal rating CYPIR (CYPIR (Rice Flatsedge); rate 0.2500 kg/ha): 0.0
- Herbicidal rating CYPIR (CYPIR (Rice Flatsedge); rate 0.5000 kg/ha): 0.5
- CHEAL herbicidal rating ([3]; rate 0.0313 kg/ha): 7.0
- CHEAL herbicidal rating ([3]; rate 0.0625 kg/ha): 6.0
- CHEAL herbicidal rating ([3]; rate 0.1250 kg/ha): 9.0
- CHEAL herbicidal rating ([3]; rate 0.2500 kg/ha): 9.0
- CHEAL herbicidal rating ([3]; rate 0.5000 kg/ha): 9.0
- ECHCG preemergence herbicidal rating (ECHCG (Barnyardgrass) [4]; rate 0.0313 kg/ha): 0.0
- ECHCG preemergence herbicidal rating (ECHCG (Barnyardgrass) [4]; rate 0.0625 kg/ha): 0.0
- ECHCG preemergence herbicidal rating (ECHCG (Barnyardgrass) [4]; rate 0.1250 kg/ha): 2.0
- ECHCG preemergence herbicidal rating (ECHCG (Barnyardgrass) [4]; rate 0.2500 kg/ha): 4.0
- ECHCG preemergence herbicidal rating (ECHCG (Barnyardgrass) [4]; rate 0.5000 kg/ha): 6.0
- ORYSAT herbicidal rating (ORYSAT (Rice, Tebonnet); rate 0.0157 kg/ha): 2.0
- ORYSAT herbicidal rating (ORYSAT (Rice, Tebonnet); rate 0.0313 kg/ha): 2.5
- ORYSAT herbicidal rating (ORYSAT (Rice, Tebonnet); rate 0.0625 kg/ha): 3.0
- ORYSAT herbicidal rating (ORYSAT (Rice, Tebonnet); rate 0.1250 kg/ha): 3.0
- ORYSAT herbicidal rating (ORYSAT (Rice, Tebonnet); rate 0.2500 kg/ha): 2.0
- ORYSAT herbicidal rating (ORYSAT (Rice, Tebonnet); rate 0.5000 kg/ha): 3.5
- SETVI herbicidal rating (SETVI (Foxtail, Green); rate 0.0157 kg/ha): 0.0
- SETVI herbicidal rating (SETVI (Foxtail, Green); rate 0.0313 kg/ha): 0.0
- SETVI herbicidal rating (SETVI (Foxtail, Green); rate 0.0625 kg/ha): 0.0
- SETVI herbicidal rating (SETVI (Foxtail, Green); rate 0.1250 kg/ha): 0.0
- SETVI herbicidal rating (SETVI (Foxtail, Green); rate 0.2500 kg/ha): 0.0
- SETVI herbicidal rating (SETVI (Foxtail, Green); rate 0.5000 kg/ha): 0.0
- ABUTH preemergence herbicidal rating (ABUTH (Velvetleaf) [5]; rate 0.0625 kg/ha): 2.0
- ABUTH preemergence herbicidal rating (ABUTH (Velvetleaf) [5]; rate 0.1250 kg/ha): 2.0
- ABUTH preemergence herbicidal rating (ABUTH (Velvetleaf) [5]; rate 0.2500 kg/ha): 0.0
- ABUTH preemergence herbicidal rating (ABUTH (Velvetleaf) [5]; rate 0.5000 kg/ha): 6.0
- ABUTH herbicidal rating (ABUTH (Velvetleaf) [6]; rate 0.0157 kg/ha): 6.0
- ABUTH herbicidal rating (ABUTH (Velvetleaf) [6]; rate 0.0313 kg/ha): 6.0
- ABUTH herbicidal rating (ABUTH (Velvetleaf) [6]; rate 0.0625 kg/ha): 6.0
- ABUTH herbicidal rating (ABUTH (Velvetleaf) [6]; rate 0.1250 kg/ha): 9.0
- ABUTH herbicidal rating (ABUTH (Velvetleaf) [6]; rate 0.2500 kg/ha): 6.0
- ABUTH herbicidal rating (ABUTH (Velvetleaf) [6]; rate 0.5000 kg/ha): 9.0
- CHEAL preemergence herbicidal rating ([7]; rate 0.0313 kg/ha): 6.0
- CHEAL preemergence herbicidal rating ([7]; rate 0.0625 kg/ha): 9.0
- CHEAL preemergence herbicidal rating ([7]; rate 0.1250 kg/ha): 9.0
- CHEAL preemergence herbicidal rating ([7]; rate 0.2500 kg/ha): 9.0
- CHEAL preemergence herbicidal rating ([7]; rate 0.5000 kg/ha): 9.0
- CASOB preemergence herbicidal rating (CASOB (Sicklepod); rate 0.0313 kg/ha): 0.0
- CASOB preemergence herbicidal rating (CASOB (Sicklepod); rate 0.0625 kg/ha): 0.0
- CASOB preemergence herbicidal rating (CASOB (Sicklepod); rate 0.1250 kg/ha): 0.0
- CASOB preemergence herbicidal rating (CASOB (Sicklepod); rate 0.2500 kg/ha): 0.0
- CASOB preemergence herbicidal rating (CASOB (Sicklepod); rate 0.5000 kg/ha): 2.0
- ZEAMX preemergence herbicidal rating (ZEAMX (Corn, Field) [8]; rate 0.0313 kg/ha): 0.0
- ZEAMX preemergence herbicidal rating (ZEAMX (Corn, Field) [8]; rate 0.0625 kg/ha): 0.0
- ZEAMX preemergence herbicidal rating (ZEAMX (Corn, Field) [8]; rate 0.1250 kg/ha): 1.0
- ZEAMX preemergence herbicidal rating (ZEAMX (Corn, Field) [8]; rate 0.2500 kg/ha): 2.0
- ZEAMX preemergence herbicidal rating (ZEAMX (Corn, Field) [8]; rate 0.5000 kg/ha): 4.0
- Herbicidal rating CYPSE (CYPSE (Flatsedge); rate 0.0625 kg/ha): 0.0
- Herbicidal rating CYPSE (CYPSE (Flatsedge); rate 0.1250 kg/ha): 0.0
- Herbicidal rating CYPSE (CYPSE (Flatsedge); rate 0.2500 kg/ha): 0.0
- Herbicidal rating CYPSE (CYPSE (Flatsedge); rate 0.5000 kg/ha): 0.0
- ECHCG herbicidal rating (ECHCG (Barnyardgrass) [9]; rate 0.0157 kg/ha): 0.0
- ECHCG herbicidal rating (ECHCG (Barnyardgrass) [9]; rate 0.0313 kg/ha): 0.0
- ECHCG herbicidal rating (ECHCG (Barnyardgrass) [9]; rate 0.0625 kg/ha): 0.0
- ECHCG herbicidal rating (ECHCG (Barnyardgrass) [9]; rate 0.1250 kg/ha): 0.0
- ECHCG herbicidal rating (ECHCG (Barnyardgrass) [9]; rate 0.2500 kg/ha): 0.0
- ECHCG herbicidal rating (ECHCG (Barnyardgrass) [9]; rate 0.5000 kg/ha): 0.0
- ZEAMX herbicidal rating (ZEAMX (Corn, Field) [10]; rate 0.0157 kg/ha): 3.0
- ZEAMX herbicidal rating (ZEAMX (Corn, Field) [10]; rate 0.0313 kg/ha): 3.0
- ZEAMX herbicidal rating (ZEAMX (Corn, Field) [10]; rate 0.0625 kg/ha): 3.0
- ZEAMX herbicidal rating (ZEAMX (Corn, Field) [10]; rate 0.1250 kg/ha): 3.0
- ZEAMX herbicidal rating (ZEAMX (Corn, Field) [10]; rate 0.2500 kg/ha): 3.5
- ZEAMX herbicidal rating (ZEAMX (Corn, Field) [10]; rate 0.5000 kg/ha): 3.5
